Like-named read-outs stand apart in the source and are kept apart here.

This assay deals with cultured nerve cells (cerebral cortex). Put plainly: cells. The format is cell-based, Wistar rat. The note with it: Rattus norvegicus, Cerebral cortex neuron.
Setting [1] is: 10 mM glutamate, 24 hours at 37° C., LDH leakage, read-out: ED50 (the source's name).

Consider `CN(C(=O)Cc1c(F)c(F)c(F)c(F)c1F)[C@@H]1CC[C@@]2(O)[C@H]3Cc4ccc(O)c5c4[C@@]2(CCN3CC2CC2)[C@H]1O5` [Compound 89, 17-cyclopropylmethyl-3,14β-dihydroxy-4,5α-epoxy-6β-(N-methyl-2,3,4,5,6-pentafluorophenylacetoamido)morphinan], for which the EC50 under setting [1] is 6280 nM.
For `CC(C)CN(C(=O)CCCCC1CCCCC1)[C@@H]1CC[C@@]2(O)[C@H]3Cc4ccc(O)c5c4[C@@]2(CCN3CC2CC2)[C@H]1O5` [Compound 62, 17-cyclopropylmethyl-3,14β-dihydroxy-4,5α-epoxy-6β-(N-isobutyl-5-cyclohexylpentanoamido)morphinan], the EC50 under setting [1] was 140 nM.
As for `CN(C(=O)Cc1ccccc1)[C@@H]1CC[C@@]2(O)[C@H]3Cc4ccc(O)c5c4[C@@]2(CCN3CC2CC2)[C@H]1O5` [Compound 47, 17-cyclopropylmethyl-3,14β-dihydroxy-4,5α-epoxy-6β-(N-methylphenylacetoamido)morphinan], under setting [1], the EC50 stood at 17100 nM.
As to `CC(C)CN(C(=O)CCCCCCCc1ccccc1)[C@@H]1CC[C@@]2(O)[C@H]3Cc4ccc(O)c5c4[C@@]2(CCN3CC2CC2)[C@H]1O5` [Compound 59, 17-cyclopropylmethyl-3,14β-dihydroxy-4,5α-epoxy-6β-(N-isobutyl-8-phenyloctanoamido) morphinan], the EC50 under setting [1] stood at 480 nM.
Consider `Oc1ccc2c3c1O[C@H]1[C@H](N(Cc4ccccc4)CC4CCCCC4)CC[C@@]4(O)[C@@H](C2)N(CC2CC2)CC[C@]314` [Compound 11, 17-cyclopropylmethyl-3,14β-dihydroxy-4,5α-epoxy-6β-[N-(cyclohexylmethyl)benzylamino]morphinan], for which the EC50 under setting [1] amounted to 170 nM.
`CN(C(=O)/C=C/c1ccsc1)[C@@H]1CC[C@@]2(O)[C@H]3Cc4ccc(O)c5c4[C@@]2(CCN3CC2CC2)[C@H]1O5` (relative stereo) [Compound 54, 17-cyclopropylmethyl-3,14β-dihydroxy-4,5α-epoxy-6β-[N-methyl-trans-3-(3-thienyl)acrylamido]morphinan]: under setting [1], the EC50 amounted to 13500 nM.
Turning to `CC(C)CN(C(=O)CCCCCc1ccccc1)[C@@H]1CC[C@@]2(O)[C@H]3Cc4ccc(O)c5c4[C@@]2(CCN3CC2CC2)[C@H]1O5` [Compound 58, 17-cyclopropylmethyl-3,14β-dihydroxy-4,5α-epoxy-6β-(N-isobutyl-6-phenylhexanoamido)morphinan], the EC50 under setting [1] was 100 nM.
Turning to `CN(C(=O)/C=C/c1cccc(OC(F)(F)F)c1)[C@@H]1CC[C@@]2(O)[C@H]3Cc4ccc(O)c5c4[C@@]2(CCN3CC2CC2)[C@H]1O5` [Compound 120, 17-cyclopropylmethyl-3,14β-dihydroxy-4,5α-epoxy-6β-(N-methyl-3-trifluoromethoxycinnamamido)morphinan], where the note is “24 h, read-out: ED50”, the EC50 amounted to 1060 nM.
On to `COc1cccc(/C=C/C(=O)N(C)[C@@H]2CC[C@@]3(O)[C@H]4Cc5ccc(O)c6c5[C@@]3(CCN4CC3CC3)[C@H]2O6)c1` [Compound 50, 17-cyclopropylmethyl-3,14β-dihydroxy-4,5α-epoxy-6β-(N-methyl-3-methoxycinnamamido)morphinan], for which the EC50 under setting [1] stood at 3440 nM.
Still for that read-out and setting: to `CN([C@H]1CC[C@@]2(O)[C@H]3Cc4ccc(O)c5c4[C@@]2(CCN3CC2CC2)[C@H]1O5)S(=O)(=O)Cc1ccc(Cl)c(Cl)c1` [Compound 111, 17-cyclopropylmethyl-3,14β-dihydroxy-4,5α-epoxy-6α-(N-methyl-3,4-dichlorophenylmethanesulfonamido) morphinan] belongs 540 nM; to `CCCCCN(C(=O)CCCCCc1ccccc1)[C@@H]1CC[C@@]2(O)[C@H]3Cc4ccc(O)c5c4[C@@]2(CCN3CC2CC2)[C@H]1O5` [Compound 70, 17-cyclopropylmethyl-3,14β-dihydroxy-4,5α-epoxy-6β-(N-pentyl-6-phenylhexanoamido)morphinan], 190 nM.
For `CN(C(=O)C1CCCCC1)[C@H]1CC[C@@]2(O)[C@H]3Cc4ccc(O)c5c4[C@@]2(CCN3CC2CC2)[C@H]1O5` [Compound 31, 17-cyclopropylmethyl-3,14β-dihydroxy-4,5α-epoxy-6α-(N-methylcyclohexylcarboxamido)morphinan], the EC50 under setting [1] worked out at 2530 nM.

The values above are taken from patent publication US5972953A, “Brain cell protective agent” (priority 1993, dated 1999).
